In US20080200439A1, “Methods and compositions for modulating BK channel activity and vasodilation” (University of Tennessee Research Foundation, priority 2006, published 2008):

Columns and labels:
[1] = system: pressurized resistance cerebral arteries; assay: Artery diameter measurement, pressurized rat middle cerebral arteries; conditions: 0.8 mM
Method: Artery Diameter Measurement. Middle cerebral arteries were isolated from adult male Sprague-Dawley rats (=250 g) or 8- to 12-week-old β1-knockout and C57BL/6 control mice. Rats and mice were decapitated using a guillotine and sharp scissors, respectively. These procedures were approved by the Institutional Animal Care and Use Committee from The University of Tennessee Health Science Center, an AMLAC-accredited institution. Pressurization of arteries was performed as described (Liu et al., 2004). Endothelium was removed by passing an air bubble into the vessel lumen for 90 sec. Diameter changes were monitored through an inverted microscope (Nikon Eclipse TS100, Nikon Corp., Tokyo, Japan), recorded on camera (Sanyo VCB-3512T, Sanyo Electric Corp., Japan), and transferred to a computer. Diameter data were acquired and analyzed using IonWizard 4.4 software (IonOptics Corp., Milton, Mass., United States of America).
Pressurized arteries were extraluminally perfused with physiological saline solution (PSS) (Liu et al., 2004) at a constant rate of 3.75 ml/min using a peristaltic pump Dynamax RP-1 (Rainin Instrument, Inc., Oakland, Calif., United States of America). At this rate, complete washout of the iberiotoxin (Ibtx) effect required >45 min. To keep basal tone under steady behavior, we shortened this period by increasing flow rate ˜3 times during washout of Ibtx, which sometimes evoked a flow-induced dilation (FIG. 1A). Equal volumes (25 ml) of vehicle- vs. LC-containing solutions were applied at equal, constant rate (see above) to the pressurized arterial segment in the chamber via a gravity system. Drugs were dissolved to make stock solutions (see Chemicals) and diluted in PSS to final concentration.
Chemicals. All chemicals were purchased from Sigma (St. Louis, Mo., United States of America), with the exception of 5β-cholanic acid 3α-ol (LC) (Steraloids, Inc., Newport, R.I., United States of America) and Ibtx (Alomone Labs Ltd., Jerusalem, Israel). On the day of the experiment, an LC stock solution (333 mM) in dimethyl sulfoxide (DMSO) was freshly prepared by sonication for 5 min. For arterial tone experiments, the LC stock was diluted 1/10 in DMSO and further diluted in PSS to render final LC concentration. Solution containing vehicle (0.1% DMSO; V/V) was used as control perfusion. For electrophysiological recordings, the LC stock solution was diluted 1/10 in 95% ethanol and further diluted with bath solution to render final LC concentration (3-1,000 μM). The DMSO/ethanol vehicle (≦0.1/≦0.86% final concentrations) in bath solution was used as control.
Data Analysis. Artery diameter response to each compound is shown as a percentage of the diameter obtained before compound application. Arterial diameter and electrophysiological data were analyzed with IonWizard 4.4 (IonOptics Corp., Milton, Mass., United States of America) and pCLAMP 8.0 (Molecular Devices, Union City, Calif., United States of America). Further analysis, plotting, and fitting were conducted using Origin 7.0 (Originlab Corp., Northampton, Mass., United States of America) and InStat 3.0 (GraphPad Software Inc., San Diego, Calif., United States of America).
After myogenic tone development at 60 mm Hg, intact arteries reached a diameter of 154.4±5.2 μm (n=17). Maximal contraction and dilation were checked by perfusing the vessel with 60 mM KCl at the beginning, and Ca^2+-free solution at the end of each experiment (FIGS. 1A & 1B). In all cases (n=17), application of 45 μM LC, that is, concentrations well below LC's critical micellar concentration (CMC) (≧1 mM under our recording conditions) (Roda et al., 1995) caused a significant increase in peak arterial diameter: +6% on top of a transient increase in diameter caused by vehicle-containing solution (FIGS. 1A-1C). […]

[2] = target: cbv1+β1 channels (UniProt Q16558+Q62976); assay: Patch-clamp of heteromeric cbv1+β1 channels expressed in Xenopus oocytes; format: cell-based, rat; conditions: 10 μM; bath application to extracellular surface of O/O patches
From the text: cRNA Preparation and Injection into Xenopus Oocytes. Full-length cDNA coding for cbv1-subunits was cloned from rat cerebral artery myocytes by PCR and ligated to the PCR-XL-TOPO cloning vector (Invitrogen Corp., Carlsbad, Calif., United States of America) (Jaggar et al., 2005). cDNA coding for cbv1-subunits was cleaved from the cloning vector by BamHI (Invitrogen Corp., Carlsbad, Calif., United States of America) and XhoI (Promega, Madison, Wis., United States of America) and directly inserted into the pOX vector for expression in Xenopus oocytes. pOX-cbv1 was linearized with NotI (Promega, Madison, Wis., United States of America) and transcribed in vitro using T3 polymerase. Beta,-subunit cDNA inserted into the EcoR I/Sal I sites of the pCl-neo expression vector was linearized with NotI and transcribed in vitro using T7 polymerase. Beta4-subunit cDNA inserted into the pOx vector was linearized by NotI and transcribed using T3 polymerase. The mMessage-mMachine kit (Ambion Inc., Austin, Tex., United States of America) was used for transcription. The pOX vector and the cDNA coding for β1-subunits were generous gifts from Aguan Wei (Washington University, Saint Louis, Mo., United States of America) and Maria Garcia (Merck Research Laboratories, Whitehouse Station, N.J., United States of America).
Oocytes were removed from Xenopus laevis and prepared as described (Dopico et al., 1998). cRNA was dissolved in […] at 5 (cbv1) and 15 (β1 or β4) ng/μl; 1-μl aliquots were stored at −70° C. Cbv1 cRNA was injected alone (2.5 ng/μp) or coinjected with either β1 or β4 (7.5 ng/μl) cRNAs, giving molar ratios ≧6:1 (β:α). cRNA injection (23 nl/oocyte) was conducted using a modified micropipette (Drummond Scientific Co., Broomall, Pa., United States of America). The interval between injection and patch-clamp recordings was 48-72 h.
Electrophysiology. Oocytes were prepared for patch-clamp recordings as described (Dopico et al., 1998). Single-channel and macroscopic currents were recorded from inside-out (I/O) or outside-out (O/O) patches. For experiments with oocytes, both bath and electrode solutions contained (mM) 135 K^+ gluconate, 5 EGTA, 1 MgCl2, 15 HEPES, 10 glucose, pH 7.35. For experiments with myocytes, KCl substituted for K^+ gluconate. In all experiments, free Ca^2+ in solution was adjusted to the desired value by adding CaCl2. In most studies, free Ca^2+ in electrode solution=10 μM. In O/O studies with 17β-estradiol, however, free Ca^2+ in the electrode solution=0.3 μM. Nominal free Ca^2+ was calculated with MaxChelator Sliders (C. Patton, Stanford University, California, United States of America) and validated experimentally using Ca^2+-selective electrodes (Corning Incorporated Science Products Division, Corning, N.Y., United States of America).
Patch-recording electrodes were made as described (Dopico et al., 1998). Immediately before recording, the tip of each electrode was fire-polished on a microforge WPI MF-200 (World Precision Instruments, Inc., Sarasota, Fla., United States of America) to give resistances of 5-9 MD when filled with solution. An agar bridge with gluconate or Cl^− as the main anion (for oocyte and myocyte experiments, respectively) was used as ground electrode. After excision from the cell, the membrane patch was exposed to a stream of bath solution containing each agent at final concentration. Solutions were applied onto the patches using a pressurized system DAD12 (ALA Scientific Instruments, New York, N.Y., United States of America) via a micropipette tip with an internal diameter of 100 μm. Experiments were carried out at room temperature (21° C.).
Currents were recorded using an EPC8 amplifier (HEKA Electronics, Lambrecht/Pfalz, Germany) at 1 kHz using a low-pass, eight-pole Bessel filter 902LPF (Frequency Devices, Haverhill, Mass., United States of America). […]

[3] = system: BK channels; conditions: cited from earlier work

Sequence of cbv1+β1 channels (Q62976 1-1148 isoform Q62976-2): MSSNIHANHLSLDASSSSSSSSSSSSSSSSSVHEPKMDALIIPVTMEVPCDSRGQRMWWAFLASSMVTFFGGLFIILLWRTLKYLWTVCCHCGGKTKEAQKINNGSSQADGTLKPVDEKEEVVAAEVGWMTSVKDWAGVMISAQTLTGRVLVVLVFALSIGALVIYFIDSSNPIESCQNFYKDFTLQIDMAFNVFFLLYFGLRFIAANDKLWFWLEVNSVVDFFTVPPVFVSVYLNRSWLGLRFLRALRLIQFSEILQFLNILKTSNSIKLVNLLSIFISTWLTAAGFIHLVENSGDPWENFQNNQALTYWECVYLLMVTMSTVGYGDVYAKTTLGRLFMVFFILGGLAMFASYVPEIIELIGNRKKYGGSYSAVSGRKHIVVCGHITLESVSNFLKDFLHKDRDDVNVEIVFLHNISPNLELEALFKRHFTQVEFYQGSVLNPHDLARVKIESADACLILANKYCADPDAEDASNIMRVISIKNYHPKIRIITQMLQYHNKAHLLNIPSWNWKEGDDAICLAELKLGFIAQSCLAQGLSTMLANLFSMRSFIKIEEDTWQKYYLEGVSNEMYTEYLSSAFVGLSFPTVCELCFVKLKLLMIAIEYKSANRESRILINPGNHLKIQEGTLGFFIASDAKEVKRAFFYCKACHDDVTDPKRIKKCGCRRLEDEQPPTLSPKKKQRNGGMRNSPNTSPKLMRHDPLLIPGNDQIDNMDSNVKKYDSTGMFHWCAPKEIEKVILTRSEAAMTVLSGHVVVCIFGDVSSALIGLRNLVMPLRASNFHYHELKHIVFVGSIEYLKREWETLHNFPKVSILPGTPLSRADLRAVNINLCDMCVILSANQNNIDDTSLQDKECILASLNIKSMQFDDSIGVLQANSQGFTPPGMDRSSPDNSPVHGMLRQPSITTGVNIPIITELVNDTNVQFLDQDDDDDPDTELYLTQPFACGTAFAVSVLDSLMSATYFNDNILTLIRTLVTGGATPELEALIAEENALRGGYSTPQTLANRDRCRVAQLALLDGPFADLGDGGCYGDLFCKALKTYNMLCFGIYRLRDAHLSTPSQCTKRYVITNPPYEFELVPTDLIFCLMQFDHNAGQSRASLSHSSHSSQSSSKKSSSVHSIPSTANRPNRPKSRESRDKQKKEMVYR
Sequence of cbv1+β1 channels (Q16558 whole entry): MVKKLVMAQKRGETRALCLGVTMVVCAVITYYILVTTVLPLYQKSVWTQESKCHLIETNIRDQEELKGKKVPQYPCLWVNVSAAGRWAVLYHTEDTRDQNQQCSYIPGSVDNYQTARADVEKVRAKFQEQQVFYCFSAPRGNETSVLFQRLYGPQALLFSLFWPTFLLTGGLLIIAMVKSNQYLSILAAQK

Nc1ccncc1 [4-AP, 4-aminopyridine, reference compound]
Decrease in diameter [1]: −9.7±2.3%

C[C@]12CC[C@@H]3c4ccc(O)cc4CC[C@H]3[C@@H]1CC[C@@H]2O [17β-estradiol]
Effect on channel activity [2]: channel activation | Concentrations modulating BK activity through the channel α-subunit ([3]; Korovkina et al., 2004): 0.01 to 1 µM | Concentrations increasing BK (hslo) channel activity by interacting with the β1-subunit ([3]; Valverde et al., 1999): 1 to 30 µM

CC/C(=C(\c1ccccc1)c1ccc(OCCN(C)C)cc1)c1ccccc1 [tamoxifen, Tamoxifen]
Concentrations decreasing unitary current amplitude (as low as) ([3]; Duncan, 2005): 1 to 10 µM
